Literature values, collected in patent US20250339484A1, “COMPOSITION FOR BODY FAT REDUCTION CONTAINING EXTRACTS OF TARAXACUM PLATYCARPUM AND LONICERAE JAPONICA AS ACTIVE INGREDIENTS” (BOINBIO-CONVERGENCE CO., LTD., priority 2022, published 2025).

Settings: clinical trials, about 3 g per day, after 3 months

CCCC/C=C/C=C/C=C\CCCCCCCC(=O)O [CLA, conjugated linolenic acid]
body weight reduction (average): 2.5 kg
